Source: patent US20170064954A1, “HERBICIDAL COMPOSITIONS CONTAINING 4-AMINO-3-CHLORO-6-(4-CHLORO-2-FLUORO-3-METHOXYPHENYL)PYRIDINE-2-CARBOXYLIC ACID OR A DERIVATIVE THEREOF, A TRIAZOLOPYRIMIDINE SULFONAMIDE HERBICIDE OR A DERIVATIVE THEREOF, AND A CELL MEMBRANE DISRUPTOR HERBICIDE OR A DERIVATIVE THEREOF” (Dow AgroSciences LLC, priority 2015, published 2017)
Several values for one entry are separate records, joined by “and”; a condition that tells them apart may be missing. Equal entries are not always repeated.

Columns and labels:
Test in all cases: Field trial, post-emergence foliar application, visually rated % weed control
Assay type in all cases: in vivo
[1] = tested on: Conyza sumatrensis (Guernsey fleabane, ERISU)
Excerpt: (§1) Treatments consisted of the methyl ester of 4-amino-3-chloro-6-(4-chloro-2-fluoro-3-methoxyphenyl)pyridine-2-carboxylic acid (Cmpd 1, halauxifen-methyl) and diclosulam in combination as GF-3220. The form of compound of formula (I) was applied on an acid equivalent basis, and diclosulam was applied on an active ingredient basis. Glufosinate-ammonium salt was applied as various commercial formulations containing 480 grams acid equivalent per liter (g ae/L). Saflufenacil was applied as a commercial formulation containing 700 grams per kilogram (g/kg). Paraquat was applied as a commercial formulation containing 200 g/L.
(§2) Field trials were conducted under standard field conditions. Plot sizes varied from 2-4 meters (m) wide by 2-5 m long. Treatments were applied with small plot backpack sprayers, using pressurized carbon dioxide (CO2) as propellant. Pressure varied from 22-40 pounds per square inch (PSI), with spray tips typically of a Flat Fan type applying water diluent at 100-150 liters per hectare (L/ha). Boom sizes varied from 2-4 m in width. Weed sizes varied, but all treatments were applied as post-emergence treatments to weeds from 2 leaf to 2 tiller growth stages varying from 2-15 inches in height. No additional adjuvant was mixed with the treatments applied in the field.
(§3) Results in Tables 1 to 7 are field trial results for foliar applied compositions. The values reported are percent (%) control visually rated. The predicted percent (%) weed control was determined using Colby's equation. • The compositions tested, application rates employed, plant species tested, and results are given in Tables 1 to 7. • The following abbreviations are used in Tables 1 to 7: • ERISS=Conyza species (fleabane, ERISS) • ERISU=Conyza sumatrensis (Guernsey fleabane) • EPHHL=Euphorbia heterophylla L. (wild poinsettia) • IAQGR=Ipomoea grandifolia (Corda-de-viola) • ERIBO=Conyza bonariensis (fleabane) • g ae/ha=grams acid equivalent per hectare • g ai/ha=grams active ingredient per hectare • Mean % weed control=observed value of percent (%) control rated visually • Predicted mean % weed control=expected value of percent (%) control as calculated by Colby's equation • Cmpd 1=methyl 4-amino-3-chloro-6-(4-chloro-2-fluoro-3-methoxyphenyl)pyridine-2-carboxylate, halauxifen-methyl, or ARYLEX®

[2] = tested on: Euphorbia heterophylla L. (wild poinsettia, EPHHL); details: Table 4, EPHHL
Excerpt: as §1, §2, §3

[3] = tested on: Conyza species (fleabane, ERISS)
Excerpt: as §1, §2, §3

[4] = tested on: Conyza bonariensis (fleabane, ERIBO); details: Table 7, ERIBO, 21DAA, Paraquat 200 g ai/ha
Excerpt: as §1, §2, §3

[5] = tested on: Ipomoea grandifolia (Corda-de-viola, IAQGR); details: Table 5, IAQGR, Paraquat 300 g ai/ha
Excerpt: as §1, §2, §3

## CP(=O)(O)CCC(N)C(=O)O (stereo not drawn) [Glufosinate ammonium]
[1]; Table 1, ERISU, 17DAA, Glufosinate ammonium 366 g ai/ha
  Mean % weed control: 58.75% and 71.25%
[1]; Table 1, ERISU, 28DAA, Glufosinate ammonium 366 g ai/ha
  Mean % weed control: 71.25%
[1]; Table 1, ERISU, 43DAA, Glufosinate ammonium 366 g ai/ha
  Mean % weed control: 78.75%

## C[n+]1ccc(-c2cc[n+](C)cc2)cc1 [Paraquat, 1,1′-dimethyl-4,4′-bipyridinediium]
[2]; 14DAA, Paraquat 300 g ai/ha
  Mean % weed control: 81.8%
[2]; 21DAA, Paraquat 100 g ai/ha
  Mean % weed control: 56%
[2]; 21DAA, Paraquat 300 g ai/ha
  Mean % weed control: 82.8%
[2]; 30DAA, Paraquat 100 g ai/ha
  Mean % weed control: 48.3%
[2]; 30DAA, Paraquat 300 g ai/ha
  Mean % weed control: 81.8%
[3]; Table 3, ERISS, 17DAA, Paraquat 400 g ai/ha
  Mean % weed control: 32.5% and 52.5%
[3]; Table 3, ERISS, 28DAA, Paraquat 400 g ai/ha
  Mean % weed control: 52.5% and 55%
[3]; Table 3, ERISS, 43DAA, Paraquat 400 g ai/ha
  Mean % weed control: 60% and 65%
[1]; Table 6, ERISU, 13DAA, Paraquat 100 g ai/ha
  Mean % weed control: 26.3%
[1]; Table 6, ERISU, 13DAA, Paraquat 200 g ai/ha
  Mean % weed control: 40%
[1]; Table 6, ERISU, 22DAA, Paraquat 100 g ai/ha
  Mean % weed control: 41.3% and 41.1%
[1]; Table 6, ERISU, 22DAA, Paraquat 200 g ai/ha
  Mean % weed control: 56.3%
[1]; Table 6, ERISU, 28DAA, Paraquat 100 g ai/ha
  Mean % weed control: 47.5%
[1]; Table 6, ERISU, 28DAA, Paraquat 200 g ai/ha
  Mean % weed control: 61.3%
[4]
  Mean % weed control: 28.3%
[5]; 14DAA
  Mean % weed control: 54.3%
[5]; 21DAA
  Mean % weed control: 45%
[5]; 30DAA
  Mean % weed control: 39.8%

## CC(C)N(C)S(=O)(=O)NC(=O)c1cc(-n2c(=O)cc(C(F)(F)F)n(C)c2=O)c(F)cc1Cl [Saflufenacil, 2-chloro-5-[3,6-dihydro-3-methyl-2,6-dioxo-4-(trifluoromethyl)-1(2H)-pyrimidinyl]-4-fluoro-N-[[methyl(1-methylethyl)amino]sulfonyl]benzamide]
[3]; Table 2, ERISS, 17DAA, Saflufenacil 49 g ai/ha
  Mean % weed control: 52.5% and 66.3%
[3]; Table 2, ERISS, 28DAA, Saflufenacil 49 g ai/ha
  Mean % weed control: 66.3%
[3]; Table 2, ERISS, 43DAA, Saflufenacil 49 g ai/ha
  Mean % weed control: 77.5%
